# No end group written: not given here.
# Legend:
# Type in all cases: cell-based
# human bronchi [1] = test: Effect of NK1, NK2 or NK3 receptor antagonists on peptide-induced contraction of human isolated bronchi; details: phosphoramidon 10^-6 M; for effect of antagonist on contraction by cumulative additions of hHK-1 / response to a single addition of 10^-6 M hHK-1 in the presence of antagonist / effect of antagonist on the response to [Sar^9,Met(O2)^11] SP (10^-6 M), single addition: antagonist 10^-7 M; for effect of antagonist on contraction by cumulative additions of hHK-1: n = 5-12; for response to a single addition of 10^-6 M hHK-1 in the presence of antagonist: % of ACh 3 mM, control 42 ± 4%, not significant, mean ± s.e.m., n = 6-12; for effect of antagonist on the response to [Sar^9,Met(O2)^11] SP (10^-6 M), single addition: n = 6; for effect of the association of SR 140333 and SR 48968 on contraction to a single addition of 10^-6 M hHK-1: both antagonists 10^-7 M together
# From the text: (§1) Human bronchial tissues were removed from 47 patients undergoing surgical resection at Foch Hospital (Suresnes, France) or Val d'or Clinic (Saint Cloud, France) for lung cancer (31 men and 16 women; age = 64 ± 9 years). Just after resection, segments of human bronchi with an inner diameter (ID) of 1 to 3 mm were taken as far as possible from the malignant lesion. Male Hartley guinea pigs (Charles River, L'Arbresle, France) weighing 300 to 350 g were sacrificed by cervical dislocation, and tracheas and proximal bronchi were removed. After the removal of adhering lung parenchyma and connective tissues, rings from human bronchi (5-7 mm long, […]) and guinea pig trachea (3 mm long, 3 mm ID) or proximal airways (3 mm long, 1 mm ID) were prepared. 8 to 24 segments of human bronchi were obtained from each patient, whereas 8 trachea segments and 2 to 3 main bronchi segments were obtained from each guinea pig. For RT-PCR analysis, human bronchi were isolated within 1 hour after resection, immediately disrupted and homogenized in TRIzol reagent (Invitrogen) with a Potter Elvehjem homogenizer, and homogenates were kept frozen at -80°C until mRNA extraction. Experiments with human lung tissues were approved by the Regional Ethics Committee for Biomedical Research and animals were used as recommended by animal care guidelines.
# (§2) Human bronchial rings and guinea pig tracheal and bronchial rings were suspended on hooks in 5 mL organ bath containing a modified Krebs-Henseleit solution (NaCl 119, KCl 4.7, CaCl2 2.5, KH2PO4 1.2, NaHCO3 25 and glucose 11.7 mM), maintained at 37°C and oxygenated with 95% O2 and 5% CO2. An initial tension of 2 g was applied to tissues, according to previously described protocols. Changes of tension were measured isometrically with Gould strain gauges (UF1; Piodem, Canterburry, Kent, UK); and were recorded and post-processed with IOX and Datanalyst softwares (Emka Technologies France, Paris). During the initial stabilization period (30 min), tissues were washed every 10 minutes with Krebs-Henseleit solution. Phosphoramidon was used to inhibit enzymatic degradation of tachykinins by NEP [21, 40]. Phosphoramidon (10^-6 M) was added in organ bath with or without NK1-, NK2- or NK3-receptor antagonists (SR 140333, SR 48968 and SR 142801, 10^-7 M) after the first stabilization period. Antagonist concentrations were chosen based on their reported affinities for human tachykinin receptors and on their ability to antagonize HK-1-induced responses at similar concentrations in other models. Tissues were then equilibrated 1 hour and concentration-response curves to tachykinins and related peptides were established by applying cumulative concentrations of peptides at 5 to 10 min intervals in semi-logarithmic increments, or by applying a single concentration of peptide. Only one concentration-response curve to tachykinins was recorded in each strip, and each experiment was performed in duplicate. Maximal response was determined by a final addition of acetylcholine hydrochloride (ACh, 3 mM). Contractile responses to tachykinins and related compounds were expressed as percentage of that induced by ACh. The pD2 (defined as the negative log of the molar drug concentration that caused 50% of maximal effect) were calculated from the log concentration-effect curves. When the pD2 value was not assessable (maximal effect (Emax) not reached), it was replaced by the -log EC20 (defined as the negative log of the drug concentration that caused 20% of maximal contraction with ACh). All values in the text and in the figures are expressed as arithmetic mean ± standard error of the mean (s.e.m) of duplicate experiments on tissues from the given (n) number of individuals or animals.
# guinea-pig trachea [2] = test: Effect of NK1 or NK2 receptor antagonists on hHK-1-induced contraction of guinea pig trachea; details: for effect of antagonist on contractions induced by hHK-1, guinea-pig trachea: antagonist 10^-7 M, cumulative additions of hHK-1, phosphoramidon 10^-6 M
# From the text: as §1, with “For RT-PCR analysis, human bronchi were isolated within 1 hour after resection, immediately disrupted and homogenized in TRIzol reagent (Invitrogen) with a Potter Elvehjem homogenizer, and homogenates were kept frozen at -80°C until mRNA extraction. Experiments with human lung tissues were approved by the Regional Ethics Committee for Biomedical Research and animals were used as recommended by animal care guidelines.” left out
# (§3) Human bronchial rings and guinea pig tracheal and bronchial rings were suspended on hooks in 5 mL organ bath containing a modified Krebs-Henseleit solution (NaCl 119, KCl 4.7, CaCl2 2.5, KH2PO4 1.2, NaHCO3 25 and glucose 11.7 mM), maintained at 37°C and oxygenated with 95% O2 and 5% CO2. […] Changes of tension were measured isometrically with Gould strain gauges (UF1; Piodem, Canterburry, Kent, UK); and were recorded and post-processed with IOX and Datanalyst softwares (Emka Technologies France, Paris). […] Only one concentration-response curve to tachykinins was recorded in each strip, and each experiment was performed in duplicate. Maximal response was determined by a final addition of acetylcholine hydrochloride (ACh, 3 mM). Contractile responses to tachykinins and related compounds were expressed as percentage of that induced by ACh. The pD2 (defined as the negative log of the molar drug concentration that caused 50% of maximal effect) were calculated from the log concentration-effect curves. […]
# guinea pig main bronchi [3] = test: Effect of NK1 or NK2 receptor antagonists on hHK-1-induced contraction of guinea pig main bronchi; details: antagonist 10^-7 M; cumulative additions of hHK-1; phosphoramidon 10^-6 M; n = 5-7
# From the text: (§4) Human bronchial tissues were removed from 47 patients undergoing surgical resection at Foch Hospital (Suresnes, France) or Val d'or Clinic (Saint Cloud, France) for lung cancer (31 men and 16 women; age = 64 ± 9 years). Just after resection, segments of human bronchi with an inner diameter (ID) of 1 to 3 mm were taken as far as possible from the malignant lesion. Male Hartley guinea pigs (Charles River, L'Arbresle, France) weighing 300 to 350 g were sacrificed by cervical dislocation, and tracheas and proximal bronchi were removed. […]
# as §3, with “ACh.” for “ACh. The pD2 (defined as the negative log of the molar drug concentration that caused 50% of maximal effect) were calculated from the log concentration-effect curves.”
# human bronchi [4] = test: Contraction of human isolated bronchi by tachykinin peptides (organ bath, isometric tension); details: phosphoramidon 10^-6 M
# From the text: as §1, §2
# human bronchi [5] = test: Cross-desensitization of NK1 receptors after consecutive applications of hHK-1 and [Sar^9,Met(O2)^11] SP on human bronchi; details: phosphoramidon 10^-6 M, n = 5
# Protocol: as §2
# guinea-pig trachea [6] = test: Contraction of guinea pig trachea by tachykinin peptides (organ bath); details: cumulative additions, phosphoramidon 10^-6 M; for Emax (% of Ach 3 mM) / pD2: guinea-pig trachea, mean ± s.e.m. for n determinations (n = 6-12); for contractile effect on guinea-pig trachea: EKA/B 10^-8 M-10^-6 M
# From the text: as §1, §2
# guinea pig main bronchi [7] = test: Contraction of guinea pig main bronchi by tachykinin peptides (organ bath); details: cumulative additions; phosphoramidon 10^-6 M; n = 6-7
# From the text: as §4
# as §3, with “ACh.” for “ACh. The pD2 (defined as the negative log of the molar drug concentration that caused 50% of maximal effect) were calculated from the log concentration-effect curves.”
# [8] = 10^-7 M, % of ACh 3 mM, mean ± s.e.m.
molecule,measurement,setting,value
"CC(=O)N(C)C1(c2ccccc2)CCN(CCCC2(c3ccc(Cl)c(Cl)c3)CCCN(C(=O)c3ccccc3)C2)CC1 (stereo in doubt) [SR 142801, (S)-(N)-(1-(3-(1-benzoyl-3-(3,4-dichlorophenyl)piperidin-3-yl)propyl)-4-phenylpiperidin-4-yl)-N-methylacetamide]",effect of antagonist on contraction by cumulative additions of hHK-1,human bronchi [1],did not alter
"CC(=O)NC1(c2ccccc2)CCN(CC[C@H](CN(C)C(=O)c2ccccc2)c2ccc(Cl)c(Cl)c2)CC1 [SR 48968, (S)-N-methyl-N-[4-acetylamino-4-phenylpiperidino-2-(3,4-dichlorophenyl)butyl]benzamide]",response to a single addition of 10^-6 M hHK-1 in the presence of antagonist,human bronchi [1],31 ± 4%
same,effect of antagonist on contraction by cumulative additions of hHK-1,human bronchi [1],completely abolished
same,"effect of antagonist on the response to [Sar^9,Met(O2)^11] SP (10^-6 M), single addition",human bronchi [1],unmodified
same,effect of the association of SR 140333 and SR 48968 on contraction to a single addition of 10^-6 M hHK-1,human bronchi [1],abolished the smooth muscle contraction
same,"effect of antagonist on contractions induced by hHK-1, guinea-pig trachea",guinea-pig trachea [2],altered to a lesser extent
same,"effect of antagonist on contractions induced by hHK-1, guinea pig main bronchi",guinea pig main bronchi [3],altered to a lesser extent
"CC(C)Oc1cccc(CC(=O)N2CCC[C@](CC[N+]34CCC(c5ccccc5)(CC3)CC4)(c3ccc(Cl)c(Cl)c3)C2)c1.[Cl-] [SR 140333, (S)1-(2-[3-(3,4-dichlorophenyl)-1-(3-isopropoxyphenylacetyl)piperidin-3-yl]ethyl)-4-phenyl-1-azoniabicyclo [2.2.2]octane chloride]",response to a single addition of 10^-6 M hHK-1 in the presence of antagonist,human bronchi [1],31 ± 5%
same,effect of antagonist on contraction by cumulative additions of hHK-1,human bronchi [1],small but not statistically significant reduction
same,"effect of antagonist on the response to [Sar^9,Met(O2)^11] SP (10^-6 M), single addition",human bronchi [1],specifically abolished
same,effect of the association of SR 140333 and SR 48968 on contraction to a single addition of 10^-6 M hHK-1,human bronchi [1],abolished the smooth muscle contraction
same,"effect on maximal contractions induced by hHK-1, guinea-pig trachea","guinea-pig trachea [2]; SR 140333 10^-9 to 10^-7 M, n = 4-11, suggesting non competitive antagonism",reduced maximal contractions
same,"effect of antagonist on contractions induced by hHK-1, guinea-pig trachea",guinea-pig trachea [2],abolished
same,"effect of antagonist on contractions induced by hHK-1, guinea pig main bronchi",guinea pig main bronchi [3],abolished
"[Sar^9,Met(O2)^11] substance P [[Sar^9,Met(O2)^11] SP]","Emax, cumulative additions in the presence of SR 48968","human bronchi [4]; NK2 antagonist SR 48968 10^-7 M, inverted U-shaped curve, % of ACh 3 mM, mean ± s.e.m.",13 ± 3%
same,"pD2, single additions in the presence of SR 48968","human bronchi [4]; NK2 antagonist SR 48968 10^-7 M, non cumulative additions, mean ± s.e.m., hHK-1 n = 5-7, [Sar^9,Met(O2)^11] SP n = 10",8.0 ± 0.4
same,"maximal contraction, single additions in the presence of SR 48968","human bronchi [4]; NK2 antagonist SR 48968 10^-7 M, non cumulative additions, sigmoid curve, % of ACh 3 mM, mean ± s.e.m., hHK-1 n = 5-7, [Sar^9,Met(O2)^11] SP n = 10",26 ± 7%
same,"contraction, first addition of [Sar^9,Met(O2)^11] SP (followed by a second addition of the same peptide)",human bronchi [5]; [8],33 ± 7%
same,"contraction, initial addition of [Sar^9,Met(O2)^11] SP (followed by hHK-1)",human bronchi [5]; [8],32 ± 7%
same,"contraction, second addition of [Sar^9,Met(O2)^11] SP after a first addition of [Sar^9,Met(O2)^11] SP","human bronchi [5]; 10^-7 M, % of ACh 3 mM, mean ± s.e.m., p < 0.01 vs first",4 ± 1%
same,"response to [Sar^9,Met(O2)^11] SP after a first addition of hHK-1","human bronchi [5]; [Sar^9,Met(O2)^11] SP 10^-7 M after hHK-1 3.10^-7 M",abolished
same,Emax (% of Ach 3 mM),guinea-pig trachea [6],76 ± 2 % of Ach 3 mM
same,pD2,guinea-pig trachea [6],7.5 ± 0.1
[β-Ala^8]-NKA (4-10),Emax (% of Ach 3 mM),guinea-pig trachea [6],80 ± 5 % of Ach 3 mM
same,pD2,guinea-pig trachea [6],8.3 ± 0.6
endokinin A/B [EKA/B],-log EC20,"human bronchi [4]; negative log of concentration causing 20% of maximal contraction with ACh, cumulative additions, mean ± s.e.m., n = 3",7.2 ± 0.3
same,"potency on guinea-pig isolated bronchi compared with SP and [Sar^9,Met(O2)^11] SP",guinea pig main bronchi [7],less potent
"endokinin C (KKAYQLEHTFQGLL; ends and bridges not checked; UniProt Q86UU9 82-95, looked up) [EKC, peptide derived from TAC4, custom synthesized]",contractile activity on human isolated bronchi,"human bronchi [4]; cumulative additions, n = 3",devoid of any contractile activity
same,contractile effect on guinea-pig trachea,guinea-pig trachea [6],without effect
endokinin D [EKD],contractile activity on human isolated bronchi,"human bronchi [4]; cumulative additions, n = 3",devoid of any contractile activity
same,contractile effect on guinea-pig trachea,guinea-pig trachea [6],without effect

# Reference: article PMC2959027, “Expression and function of human hemokinin-1 in human and guinea pig airways” (Respiratory Research, 2010)
